Measured values reported in US20240252488A1 (KOREA RESEARCH INSTITUTE OF CHEMICAL TECHNOLOGY, priority 2020, published 2024).

Legend:
FADD−/− Jurkat cells = experiment: Necroptosis inhibition assay, TNF-α-induced necroptosis (CellTiter-Glo 2.0); type: cell-based, human; conditions: TNF-α 15 ng/mL; for Necroptosis inhibition assay (Rescue %) 1 μM: compound 1 μM; for Necroptosis inhibition assay (Rescue %) 10 μM: compound 10 μM
Procedure, shortened: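 Compound is added to cells at final concentrations of 0.1, 1 and 10 μM and left 30 minutes at room temperature. Necroptosis is induced with 15 ng/mL TNF-α, culture continues 20 to 24 hours at 37° C, and ATP-based luminescence reports viability.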

MLKL [1] = molecular target: T1, MLKL (Homo sapiens, UniProt Q8NB16); experiment: MLKL degradation assay in HepG2 cell line (western blot); type: cell-based; design: endogenous in cells; host or cells: HepG2 or HaCaT; conditions: cell line not given; for Degradation assay (Degradation %) 1 μM: compound 1 μM; for Degradation assay (Degradation %) 10 μM: compound 10 μM
T1 sequence (Q8NB16 1-471): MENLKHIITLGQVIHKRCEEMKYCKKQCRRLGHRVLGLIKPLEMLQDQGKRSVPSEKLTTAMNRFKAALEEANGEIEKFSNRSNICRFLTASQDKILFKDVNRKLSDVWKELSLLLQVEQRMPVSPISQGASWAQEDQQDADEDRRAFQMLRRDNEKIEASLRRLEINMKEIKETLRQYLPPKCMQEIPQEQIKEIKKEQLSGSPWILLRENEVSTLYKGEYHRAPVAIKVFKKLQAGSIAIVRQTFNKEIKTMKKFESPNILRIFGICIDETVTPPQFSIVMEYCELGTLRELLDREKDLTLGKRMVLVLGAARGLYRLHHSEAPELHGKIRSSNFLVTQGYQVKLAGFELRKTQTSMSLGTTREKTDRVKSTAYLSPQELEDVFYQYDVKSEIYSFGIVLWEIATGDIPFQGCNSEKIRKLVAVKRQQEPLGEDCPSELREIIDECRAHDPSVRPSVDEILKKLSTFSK
Procedure, shortened: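 Chemiluminescent western blot signal reports remaining MLKL protein in HepG2 cells after 20-24 h treatment with compound at a final 1 or 10 μM. Equal protein (10-15 μg, BCA) is loaded per lane.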

MLKL [2] = molecular target: T1, MLKL; experiment: Measurement of binding affinity with MLKL receptor (competitive binding assay, Kd); design: made in house; host or cells: HEK 293 cell line (T7 phage in E. coli BL21-derived host is also described)
Procedure, shortened: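 Kd comes from a bead-based competition format: compound-dependent loss of DNA-tagged, HEK 293-expressed MLKL capture, measured as eluate kinase by qPCR. Final DMSO is 0.9%.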

SMILES	Necroptosis inhibition assay (Rescue %) 1 μM (FADD−/− Jurkat cells; FADD−/− Jurkat cells)	Necroptosis inhibition assay (Rescue %) 10 μM (FADD−/− Jurkat cells; FADD−/− Jurkat cells)	Degradation assay (Degradation %) 1 μM (MLKL [1])	Degradation assay (Degradation %) 10 μM (MLKL [1])	Kd (MLKL [2])	Necroptosis inhibition assay (Rescue %) 1 μM (FADD−/− Jurkat cells)	Necroptosis inhibition assay (Rescue %) 10 μM (FADD−/− Jurkat cells)
Nc1ncc(-c2cnn(C3CCN(CCOC4CCN(C(=O)C5CN(C6=CC(=O)N(C7CCC(=O)NC7=O)C6=O)C5)CC4)CC3)c2)nc1C(=O)O[C@@H](C(=O)Nc1ccc(F)cc1)c1ccccc1 (stereo partly drawn) [TDH-541, (R)-2-((4-fluorophenyl)amino)-2-oxo-1-phenylethyl 3-amino-6-(1-(1-(2-((1-(1-(1-(2,6-dioxopiperidin-3-yl)-2,5-dioxo-2,5-dihydro-1H-pyrrol-3-yl)azetidine-3-carbonyl)piperidin-4-yl)oxy)ethyl)piperidin-4-yl)-1H-pyrazol-4-yl)pyrazine-2-carboxylate]	24.95%	24.58%	78.24%	69.17%	0.34 nM	–	–
Nc1ncc(-c2cnn(C3CCN(CCC4CCN(C(=O)CNc5ccc6c(c5)C(=O)N(C5CCC(=O)NC5=O)C6=O)CC4)CC3)c2)cc1C(=O)OC(C(=O)Nc1ccc(F)cc1)c1ccccc1 (stereo not shown) [TDH-302, 2-((4-fluorophenyl)amino)-2-oxo-1-phenylethyl 2-amino-5-(1-(1-(2-(1-((2-(2,6-dioxopiperidin-3-yl)-1,3-dioxoisoindolin-5-yl)glycyl)piperidin-4-yl)ethyl)piperidin-4-yl)-1H-pyrazol-4-yl)nicotinate]	–	–	96.64%	85.06%	8.6 nM	54.15%	51.56%
Nc1ncc(-c2cnn(C3CCN(CC4CN(c5ccc6c(c5)C(=O)N(C5CCC(=O)NC5=O)C6=O)CCO4)CC3)c2)nc1C(=O)OC(C(=O)Nc1ccc(F)cc1)c1ccccc1 (stereo not shown) [TDH-311, 2-((4-fluorophenyl)amino)-2-oxo-1-phenylethyl 3-amino-6-(1-(1-((4-(2-(2,6-dioxopiperidin-3-yl)-1,3-dioxoisoindolin-5-yl)morpholin-2-yl)methyl)piperidin-4-yl)-1H-pyrazol-4-yl)pyrazine-2-carboxylate]	–	–	69.38%	52.38%	5.3 nM	57.09%	39.01%
Nc1ncc(-c2cnn(C3CCN(CCCN4CCN(C(=O)C5CCN(c6cccc7c6C(=O)N(C6CCC(=O)NC6=O)C7=O)CC5)CC4)CC3)c2)nc1C(=O)OC(C(=O)Nc1ccc(F)cc1)c1ccccc1 (stereo not shown) [TDH-239, 2-((4-fluorophenyl)amino)-2-oxo-1-phenylethyl 3-amino-6-(1-(1-(3-(4-(1-(2-(2,6-dioxopiperidin-3-yl)-1,3-dioxoisoindolin-4-yl)piperidine-4-carbonyl)piperazin-1-yl)propyl)piperidin-4-yl)-1H-pyrazol-4-yl)pyrazine-2-carboxylate]	–	–	53.9%	65.78%	3.8 nM	40.3%	23.29%
COc1ccc(C(=O)N2CCC(CN3CCC(CCN4CCC(n5cc(-c6cnc(N)c(C(=O)O[C@@H](C(=O)Nc7ccc(F)cc7)c7ccccc7)n6)cn5)CC4)CC3)CC2)cc1N1CCC(=O)NC1=O [TDH-505, (R)-2-((4-fluorophenyl)amino)-2-oxo-1-phenylethyl 3-amino-6-(1-(1-(2-(1-((1-(3-(2,4-dioxotetrahydropyrimidin-1(2H)-yl)-4-methoxybenzoyl)piperidin-4-yl)methyl)piperidin-4-yl)ethyl)piperidin-4-yl)-1H-pyrazol-4-yl)pyrazine-2-carboxylate]	102.00%	76.87%	90.52%	94.63%	0.36 nM	–	–
